In patent publication US6020006A, “Reduction of hair growth” (The Gillette Company, priority 1998, dated 2000):

Columns and labels:
Human hair follicles = assay: Human hair follicle growth assay; type: cell-based; details: for % Inhibition / reduction in growth rate: Day 6-Day 0, vs control
Description: Human hair follicles in growth phase (anagen) were isolated from face-lift tissue under a dissecting scope using a scalpel and watchmakers forceps. The skin was sliced into thin strips exposing 2-3 rows of follicles that could readily be dissected. Follicles were placed into 0.5 mL Williams E medium (Life Technologies, Gaithersburg, Md.) supplemented with […] L-glutamine, 10 μg/mL insulin, 10 ng/mL hydrocortisone, 100 units penicillin, 0.1 mg/mL streptomycin and 0.25 μg/mL amphotericin B. The follicles were incubated in 24 well plates (1 follicle/well) at 37° C. in an atmosphere of 5% CO2 and 95% air. Hair follicles were videorecorded in the 24-well plates under the dissecting scope under a power of 20×. Typically, initial recordings were made on day 0 (day follicles were placed in culture) or day 1, and again on days 7 or 8. Hair follicle lengths were assessed using an image analysis software system (Computer Eyes and NIH Image).

Alkaline phosphatase [1] = target: T1, Alkaline phosphatase (Mesocricetus auratus, UniProt A0A1U7QBN2); assay: Alkaline phosphatase activity, hamster flank organ hair follicle enzyme; type: biochemical
T1 construct: the supernatant was used as the enzyme source; from tissue; host or cells: whole hamster flank organs, homogenized, 12,000×g supernatant
T1 sequence (A0A1U7QBN2 18-524): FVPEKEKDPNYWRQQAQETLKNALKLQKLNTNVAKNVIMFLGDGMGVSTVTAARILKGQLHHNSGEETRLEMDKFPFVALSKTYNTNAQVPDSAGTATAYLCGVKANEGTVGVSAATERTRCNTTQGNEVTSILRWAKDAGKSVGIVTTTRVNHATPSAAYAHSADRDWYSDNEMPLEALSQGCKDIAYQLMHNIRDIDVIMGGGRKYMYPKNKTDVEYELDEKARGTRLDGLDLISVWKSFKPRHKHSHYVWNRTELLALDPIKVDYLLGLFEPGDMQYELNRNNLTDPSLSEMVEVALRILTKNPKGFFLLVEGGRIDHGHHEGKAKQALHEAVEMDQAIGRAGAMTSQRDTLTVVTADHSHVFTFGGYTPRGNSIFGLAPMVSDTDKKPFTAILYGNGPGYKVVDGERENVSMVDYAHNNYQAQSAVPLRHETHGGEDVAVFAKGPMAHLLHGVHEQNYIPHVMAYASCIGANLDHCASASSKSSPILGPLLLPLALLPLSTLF
Description: (§1) Alkaline phosphatase activity was determined using a kit supplied by Sigma Chemical Co. Whole flank organs from hamsters or isolated human hair follicles were homogenized in a Tris-sucrose buffer, pH 7.5, using a polytron. The homogenate was centrifuged at 12,000×g for 5 minutes in a microcentrifuge, and the supernatant was used as the enzyme source. The supernatant (0.1 mL) was added to a reaction mixture containing 0.5 mL substrate (p-nitophenol phosphate) and 0.5 mL reaction buffer (both reagents supplied in the kit). Inhibitors were added in a volume of 0.1 mL. Water was used as a negative control. Reaction mixtures were incubated for 30 minutes at 37° C. The reaction mixtures were then transferred to a tube containing 10 mL 0.05N NaOH. Absorbance was measured at a wavelength of 410 nm. Concentrated hydrochloric acid (0.2 mL) was added to each tube and tubes were mixed. Again, absorbance was measured at 410 nm. Absorbance values from the second measurement were substrated from the first measurement to give normalized alkaline phosphatase activity.

Alkaline phosphatase [2] = target: T2, Alkaline phosphatase (Homo sapiens, UniProt P05186); assay: Alkaline phosphatase activity, human hair follicle enzyme; type: biochemical
T2 construct: the supernatant was used as the enzyme source; from tissue; host or cells: isolated human hair follicles, homogenized, 12,000×g supernatant
T2 sequence (P05186 18-502 limits assumed): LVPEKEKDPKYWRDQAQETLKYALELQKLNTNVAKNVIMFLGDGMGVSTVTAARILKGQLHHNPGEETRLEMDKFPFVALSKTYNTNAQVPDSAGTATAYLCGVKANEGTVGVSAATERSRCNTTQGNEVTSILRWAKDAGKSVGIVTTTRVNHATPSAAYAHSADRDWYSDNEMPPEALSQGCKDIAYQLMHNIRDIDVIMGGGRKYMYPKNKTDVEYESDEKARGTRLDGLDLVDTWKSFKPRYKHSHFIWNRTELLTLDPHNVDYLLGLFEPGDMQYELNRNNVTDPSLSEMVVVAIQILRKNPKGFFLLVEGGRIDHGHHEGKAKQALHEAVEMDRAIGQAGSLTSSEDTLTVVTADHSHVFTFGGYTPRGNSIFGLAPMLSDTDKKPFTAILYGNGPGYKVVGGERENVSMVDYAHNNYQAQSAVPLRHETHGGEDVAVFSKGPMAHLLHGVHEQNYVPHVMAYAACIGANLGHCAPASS
Description: as §1

[3] = test system: tissue-specific form of alkaline phosphatase; details: Millan, Clinica Chimica Acta. 209:123-129, 1992; cited from earlier work
[4] = test system: tissue nonspecific form of alkaline phosphatase; details: in several species; cited from earlier work

c1ccc(C2CN3CCSC3=N2)cc1 (racemic) [Tetramisole, [±]-2,3,5,6-tetrahydro-6-phenyl-imidazo [2,1-b] thiazole]
Hair Follicle Length Increase (mm) (Day 6-Day 0) (Human hair follicles; 0.5 mM, control 1.08 ± .25 mm): 0.63 ± .06 mm
inhibition at 500 µM (Human hair follicles; Homo sapiens, read-out: % Inhibition of hair growth): 42 ± 5%
IC50 (Alkaline phosphatase [1]; hamster hair follicle enzyme): 125 µM

[Na+].[Na+].[Na+].[O]=[V]([O-])([O-])[O-] [Sodium Orthovanadate, sodium orthovanadate]
% Inhibition / reduction in growth rate (Human hair follicles; 0.1 mM): 58 ± 8%
% Inhibition / reduction in growth rate (Human hair follicles; 0.1 mM, listed as sodium orthovanadate): 58±8%
Hair Follicle Length Increase (mm) (Day 6-Day 0) (Human hair follicles; 0.1 mM, control 0.77 ± .09 mm): 0.32 ± .06 mm
IC50 (Alkaline phosphatase [2]; Human Hair Follicle, Table 3, 30 minutes at 37° C.): 75 µM
IC50 (Alkaline phosphatase [2]; human hair follicle enzyme): 75 µM
IC50 (Alkaline phosphatase [1]; Flank Organ, Table 3, 30 minutes at 37° C.): 40 µM
IC50 (Alkaline phosphatase [1]; hamster hair follicle enzyme): 40 µM

N[C@@H](Cc1ccccc1)C(=O)O [phenylalanine]
inhibition of tissue-specific alkaline phosphatase [3]: inhibit the tissue-specific form of alkaline phosphatase in a stereoselective fashion in that only the L-form is active

N[C@@H](Cc1c[nH]c2ccccc12)C(=O)O [tryptophan]
inhibition of tissue-specific alkaline phosphatase [3]: inhibit the tissue-specific form of alkaline phosphatase in a stereoselective fashion in that only the L-form is active

CC(C)C[C@H](N)C(=O)O [leucine]
inhibition of tissue-specific alkaline phosphatase [3]: inhibit the tissue-specific form of alkaline phosphatase in a stereoselective fashion in that only the L-form is active

N=C(N)NCCCC[C@H](N)C(=O)O [L-homeoarginine]
inhibition of tissue nonspecific alkaline phosphatase [4]: inhibitor of the tissue nonspecific form of alkaline phosphatase in several species
